How the values were obtained:
Type in all cases: cell-based
T47D MK-2206-res = assay: Cell viability assay (AlamarBlue), MK-2206-resistant line; settings: 3 days
Experimental: After this time, cells were lysed and analyzed by antibodies for phosphorylated T305 (pT305) of Akt3, Halo (Akt), and Actin (loading control). […] FIG. 23F is a graph showing proliferation curves. […] After this time, the number of viable cells was calculated using AlamarBlue®. Proliferation curves were fitted to the PI50 equation (EQN. 4). […] FIG. 23H is a graph showing the percentage of viable cells. […] The percentage of growth relative to DMSO-treated cells is shown for the 48 hour point and the 72 hour point. FIG. 23I is a schematic showing the different methods used to derive the data in 23H.
Indicated cells were plated in a 96-well plate containing the DMEM complete medium (see Example 11 for complete medium formulation, 100 μL per well) with a density of 3,000-5,000 cells per well for 12 hours followed by the addition of varying concentrations of inhibitors in rinse medium (100 μL). The cells were allowed to grow for 72 hours and 100 μL of the culture medium was removed from each well. This was followed by the addition of 10 μL AlamarBlue® reagent to each well. The fluorescence emission signals at 590 nm were read by Cytation 3 cell imaging multi-mode reader (BioTeK) using an excitation wavelength of 560 nm. Curve fitting and data analysis were performed using Prism software.

Akt1 = target: T1, Akt1 (Homo sapiens, UniProt P31749); assay: In-gel fluorescence assay (Cy5-azide click) of covalent labeling in transfected HEK293T cells; settings: 5 μM, 48 hours
T1 construct: expressed in transfected cells; host or cells: HEK293T
From the text: (§1) Overexpressed Akt proteins were labeled with Cy5-small-molecule-fluorophore-conjugated azide (Cy5-azide) using standard click chemistry. FIG. 16A top gel is an image showing Cy5 channel (used to evaluate the extent of covalent binding on each Akt protein). The lysate from non-transfected HEK 293T cells was also used for comparison. M, molecular weight ladder. […] FIG. 16B top gel is an image showing Cy5 channel. M is a molecular weight ladder. FIG. 16B bottom is an image showing western blots probing Halo and actin, respectively. […] Error bars designate s.d. […] Normalized fluorescent signal (NFS) was calculated from the following equation: NFS=[(Cy5(X μM drug)−Cy5(No transfection))/Halo(X μM drug)]÷[(Cy5(no drug)−Cy5(No transfection))/Halo(no drug)]. The relative fluorescent signal (RFS) is calculated from the following equation: RFS=(Cy5(X μM drug)/Halo(X μM drug)) (Cy5(no drug)/Halo(no drug))
(§2) Cell transfection with the designated plasmid encoding a given HaloTag-Akt fusion gene was carried out following the general procedure described in Example 12. After 20-24 hours, the transfection media were aspirated and replaced with fresh 2 mL rinse MEM medium supplemented with 3% FBS containing the indicated concentration of inhibitor or the equivalent final volume of DMSO and the plates were incubated for the indicated period of time. […]

Akt3 C119S mutant = target: T2, Akt3 C119S mutant (Homo sapiens, UniProt Q9Y243, C119S); assay: as above; settings: 5 μM, 48 hours
T2 construct: expressed in transfected cells; host or cells: HEK293T
From the text: as §1, §2

T2 sequence (Q9Y243 whole entry C119S): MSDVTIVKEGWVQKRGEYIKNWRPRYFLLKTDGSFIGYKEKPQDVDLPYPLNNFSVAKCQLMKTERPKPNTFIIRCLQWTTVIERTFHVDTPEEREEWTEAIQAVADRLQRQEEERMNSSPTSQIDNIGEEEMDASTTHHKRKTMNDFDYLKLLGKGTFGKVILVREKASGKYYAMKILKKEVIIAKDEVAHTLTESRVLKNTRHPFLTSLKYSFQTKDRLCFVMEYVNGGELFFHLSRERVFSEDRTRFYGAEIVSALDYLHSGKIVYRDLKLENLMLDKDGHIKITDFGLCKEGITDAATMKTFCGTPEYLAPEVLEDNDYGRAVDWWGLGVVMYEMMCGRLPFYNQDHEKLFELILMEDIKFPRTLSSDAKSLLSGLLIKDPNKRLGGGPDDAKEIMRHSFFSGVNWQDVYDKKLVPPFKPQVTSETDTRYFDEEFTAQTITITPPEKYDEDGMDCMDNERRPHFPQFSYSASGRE
T1 sequence (P31749 whole entry): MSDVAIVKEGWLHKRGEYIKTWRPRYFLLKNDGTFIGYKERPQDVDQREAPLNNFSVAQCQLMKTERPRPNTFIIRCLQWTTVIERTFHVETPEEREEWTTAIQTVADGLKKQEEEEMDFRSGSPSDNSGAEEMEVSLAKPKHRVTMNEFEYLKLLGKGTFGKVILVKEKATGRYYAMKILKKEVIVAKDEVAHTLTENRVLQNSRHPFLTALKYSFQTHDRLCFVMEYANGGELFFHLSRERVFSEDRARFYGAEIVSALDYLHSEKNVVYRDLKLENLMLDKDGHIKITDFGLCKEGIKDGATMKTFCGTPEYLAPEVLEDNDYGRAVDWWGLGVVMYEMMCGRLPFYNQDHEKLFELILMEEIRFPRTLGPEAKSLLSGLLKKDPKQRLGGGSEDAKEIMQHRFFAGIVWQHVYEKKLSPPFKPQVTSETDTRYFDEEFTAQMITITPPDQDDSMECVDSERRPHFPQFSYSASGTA

Row | covalent inhibition of Akt1 isoform (Akt1) | covalent modification of C119S mutant of Akt3 (Akt3 C119S mutant) | SMILES | resistance of T47D MK-2206-res line (T47D MK-2206-res)
1 | – | – | C#CCCCC(F)/C=C/C(=O)NC1(c2ccc(-c3nc4ccn5c(=O)[nH]nc5c4cc3-c3ccccc3)cc2)CCC1.Cl (stereo not drawn) [MK-FNE, (E)-8-(4-(1-(4-Fluoronon-2-en-8-ynamido)cyclobutyl)phenyl)-3-oxo-9-phenyl-2,3-dihydro-[1,2,4]triazolo[3,4-f][1,6]naphthyridin-7-ium Chloride] | significantly less resistant
2 | no covalent inhibition | no covalent modification | C#CCCCC(O)/C=C/C(=O)NC1(c2ccc(-c3nc4ccn5c(=O)[nH]nc5c4cc3-c3ccccc3)cc2)CCC1.Cl (stereo not drawn) [MK-HNE, (E)-8-(4-(1-(4-Hydroxynon-2-en-8-ynamido)cyclobutyl)phenyl)-3-oxo-9-phenyl-2,3-dihydro-[1,2,4]triazolo[3,4-f][1,6]naphthyridin-7-ium Chloride] | –
